Data: patent US9266835B2, “Quinoline derivatives useful as CB-1 inverse agonists” (JANSSEN PHARMACEUTICA NV, priority 2014, dated 2016)
Like-named read-outs stand apart in the source and are kept apart here.

Legend:
[1] = Chronic DIO Mouse, first study: plasma and brain concentrations; assay type: in vivo; details: male, DIO mice, 2 Hours Post Dose, Day 16, (Std Dev)
Description: (§1) Male 14-20-week old diet-induced obese mice were ordered from Taconic. Mice were started on a 60% fat diet (D12492, Research Diets, New Brunswick, N.J.) at 6 weeks of age. Mice were single-housed.
(§2) Test compounds were formulated in 10% PEG400 and 10% solutol. Test compounds were administered by oral gavage (5 ml kg^−1).
(§3) The test compound was formulated in 10% PEG400 and 10% solutol. DIO mice received vehicle, test compound (@ 1, 3 and 10 mg/kg) daily for 26 days. At the end of the experiment, the mice were euthanized and blood and tissues were collected.
(§4) Compound #44 was tested according to the procedure as described above, with results as listed in Table BIO-4A through Table BIO4-G, below.

[2] = Chronic DIO Mouse, first study (food intake, body weight, insulin tolerance test, glucose tolerance test, plasma insulin, fed blood glucose); assay type: in vivo; details: DIO mice; for Fed Blood Glucose / Plasma Insulin: mean (Std Err); for Insulin Tolerance Test, Blood Glucose AUC: day 19; for Intraperitoneal Glucose Tolerance Test Blood Glucose AUC: day 23
Description: as §1, §2, §3
Body weight and food weight (food intake) were monitored daily for days 1-5 and twice weekly thereafter. Fed blood glucose was measured weekly.
An insulin tolerance test (0.5 U/kg Humulin, ip) was performed on day 19 after a 4 hour food removal. Blood glucose was measured at 0, 15, 30, 60 and 120 minutes after insulin. […] Blood glucose was measured at 0, 30, 60 and 120 minutes after glucose challenge.
Blood glucose was measured from the tail vein with a Lifescan glucometer. Plasma insulin was measured with an ELISA or HTRF kit (Cisbio). Plasma parameters were measured with an Olympus clinical chemistry analyzer.
as §4

concentration at 2 h ([1]; brain, 1 mg/kg daily oral, read-out: Brain concentration): 59.4 ng/g
concentration at 2 h ([1]; brain, 3 mg/kg daily oral, read-out: Brain concentration): 114 ng/g
concentration at 2 h ([1]; brain, 10 mg/kg daily oral, read-out: Brain concentration): 244 ng/g
concentration at 2 h ([1]; plasma, 1 mg/kg daily oral, read-out: Plasma concentration): 31 ng/mL
concentration at 2 h ([1]; plasma, 3 mg/kg daily oral, read-out: Plasma concentration): 1510 ng/mL
concentration at 2 h ([1]; plasma, 10 mg/kg daily oral, read-out: Plasma concentration): 4440 ng/mL
SMILES: O=c1cc(NC2CCN(S(=O)(=O)C(F)(F)F)CC2)c2cc(C(c3ccc(Cl)cc3)c3ccc(Cl)cc3)ccc2[nH]1 [Compound #44, 6-(bis(4-chlorophenyl)methyl)-4-(1-(trifluoromethylsulfonyl)piperidin-4-ylamino)quinolin-2(1H)-one]
Fed Blood Glucose ([2]; 1 mg/kg daily oral, Day 0): 162.75 (13.02) mg/dL
Fed Blood Glucose ([2]; 1 mg/kg daily oral, Day 18): 154.83 (5.98) mg/dL
Plasma Insulin ([2]; 1 mg/kg daily oral): 2.60 (0.3) ng/mL
Mean Body Weight (Std Err) ([2]; 1 mg/kg daily, Day 1): 43.32 (0.45) Grams
Mean Body Weight (Std Err) ([2]; 1 mg/kg daily, Day 2): 43.28 (0.45) Grams
Mean Daily Food Intake (Std Err) ([2]; 1 mg/kg daily, Day 2): 2.84 (0.17) Grams
Mean Body Weight (Std Err) ([2]; 1 mg/kg daily, Day 3): 43.28 (0.42) Grams
Mean Daily Food Intake (Std Err) ([2]; 1 mg/kg daily, Day 3): 3.00 (0.09) Grams
Mean Body Weight (Std Err) ([2]; 1 mg/kg daily, Day 4): 43.06 (0.44) Grams
Mean Daily Food Intake (Std Err) ([2]; 1 mg/kg daily, Day 4): 2.76 (0.17) Grams
Mean Body Weight (Std Err) ([2]; 1 mg/kg daily, Day 5): 43.21 (0.50) Grams
Mean Daily Food Intake (Std Err) ([2]; 1 mg/kg daily, Day 5): 2.88 (0.12) Grams
Mean Body Weight (Std Err) ([2]; 1 mg/kg daily, Day 8): 42.62 (0.48) Grams
Mean Daily Food Intake (Std Err) ([2]; 1 mg/kg daily, Day 8): 2.50 (0.09) Grams
Mean Body Weight (Std Err) ([2]; 1 mg/kg daily, Day 10): 42.38 (0.51) Grams
Mean Daily Food Intake (Std Err) ([2]; 1 mg/kg daily, Day 10): 2.37 (0.07) Grams
Mean Body Weight (Std Err) ([2]; 1 mg/kg daily, Day 11): 42.07 (0.63) Grams
Mean Daily Food Intake (Std Err) ([2]; 1 mg/kg daily, Day 11): 2.28 (0.15) Grams
Insulin Tolerance Test, Blood Glucose AUC ([2]; 1 mg/kg daily): 18543.8 mg·min/dL
Insulin Tolerance Test Mean Blood Glucose (Std Err) ([2]; 1 mg/kg daily, day 19, 0 min after insulin): 194.0 (6.1) mg/dL
Insulin Tolerance Test Mean Blood Glucose (Std Err) ([2]; 1 mg/kg daily, day 19, 15 min after insulin): 196.1 (18.6) mg/dL
Insulin Tolerance Test Mean Blood Glucose (Std Err) ([2]; 1 mg/kg daily, day 19, 30 min after insulin): 136.7 (10.4) mg/dL
Insulin Tolerance Test Mean Blood Glucose (Std Err) ([2]; 1 mg/kg daily, day 19, 60 min after insulin): 145.1 (11.5) mg/dL
Insulin Tolerance Test Mean Blood Glucose (Std Err) ([2]; 1 mg/kg daily, day 19, 120 min after insulin): 151.4 (7.8) mg/dL
Intraperitoneal Glucose Tolerance Test Blood Glucose AUC ([2]; 1 mg/kg daily): 29525.6 mg·min/dL
Intraperitoneal Glucose Tolerance Test Mean Blood Glucose (Std Err) ([2]; 1 mg/kg daily, day 23, 0 min after glucose): 158.1 (6.9) mg/dL
Intraperitoneal Glucose Tolerance Test Mean Blood Glucose (Std Err) ([2]; 1 mg/kg daily, day 23, 30 min after glucose): 334.6 (14.5) mg/dL
Intraperitoneal Glucose Tolerance Test Mean Blood Glucose (Std Err) ([2]; 1 mg/kg daily, day 23, 60 min after glucose): 264.8 (19.7) mg/dL
Intraperitoneal Glucose Tolerance Test Mean Blood Glucose (Std Err) ([2]; 1 mg/kg daily, day 23, 120 min after glucose): 173.4 (13.5) mg/dL
Fed Blood Glucose ([2]; 3 mg/kg daily oral, Day 0): 167.13 (7.59) mg/dL
Fed Blood Glucose ([2]; 3 mg/kg daily oral, Day 18): 156.50 (7.39) mg/dL
Plasma Insulin ([2]; 3 mg/kg daily oral): 2.26 (0.3) ng/mL
Mean Body Weight (Std Err) ([2]; 3 mg/kg daily, Day 1): 43.19 (0.39) Grams
Mean Body Weight (Std Err) ([2]; 3 mg/kg daily, Day 2): 42.86 (0.47) Grams
Mean Daily Food Intake (Std Err) ([2]; 3 mg/kg daily, Day 2): 2.71 (0.13) Grams
Mean Body Weight (Std Err) ([2]; 3 mg/kg daily, Day 3): 42.71 (0.56) Grams
Mean Daily Food Intake (Std Err) ([2]; 3 mg/kg daily, Day 3): 2.92 (0.13) Grams
Mean Body Weight (Std Err) ([2]; 3 mg/kg daily, Day 4): 42.20 (0.65) Grams
Mean Daily Food Intake (Std Err) ([2]; 3 mg/kg daily, Day 4): 2.44 (0.24) Grams
Mean Body Weight (Std Err) ([2]; 3 mg/kg daily, Day 5): 41.95 (0.70) Grams
Mean Daily Food Intake (Std Err) ([2]; 3 mg/kg daily, Day 5): 2.26 (0.20) Grams
Mean Body Weight (Std Err) ([2]; 3 mg/kg daily, Day 8): 41.06 (0.76) Grams
Mean Daily Food Intake (Std Err) ([2]; 3 mg/kg daily, Day 8): 2.30 (0.11) Grams
Mean Body Weight (Std Err) ([2]; 3 mg/kg daily, Day 10): 40.50 (0.74) Grams
Mean Daily Food Intake (Std Err) ([2]; 3 mg/kg daily, Day 10): 2.14 (0.15) Grams
Mean Body Weight (Std Err) ([2]; 3 mg/kg daily, Day 11): 40.15 (0.74) Grams
Mean Daily Food Intake (Std Err) ([2]; 3 mg/kg daily, Day 11): 1.95 (0.11) Grams
Insulin Tolerance Test, Blood Glucose AUC ([2]; 3 mg/kg daily): 16879.5 mg·min/dL
Insulin Tolerance Test Mean Blood Glucose (Std Err) ([2]; 3 mg/kg daily, day 19, 0 min after insulin): 189.4 (7.3) mg/dL
Insulin Tolerance Test Mean Blood Glucose (Std Err) ([2]; 3 mg/kg daily, day 19, 15 min after insulin): 178.8 (12.5) mg/dL
Insulin Tolerance Test Mean Blood Glucose (Std Err) ([2]; 3 mg/kg daily, day 19, 30 min after insulin): 121.4 (13.7) mg/dL
Insulin Tolerance Test Mean Blood Glucose (Std Err) ([2]; 3 mg/kg daily, day 19, 60 min after insulin): 119.7 (9.6) mg/dL
Insulin Tolerance Test Mean Blood Glucose (Std Err) ([2]; 3 mg/kg daily, day 19, 120 min after insulin): 155.3 (9.5) mg/dL
Intraperitoneal Glucose Tolerance Test Blood Glucose AUC ([2]; 3 mg/kg daily): 29983.1 mg·min/dL
Intraperitoneal Glucose Tolerance Test Mean Blood Glucose (Std Err) ([2]; 3 mg/kg daily, day 23, 0 min after glucose): 161.8 (5.0) mg/dL
Intraperitoneal Glucose Tolerance Test Mean Blood Glucose (Std Err) ([2]; 3 mg/kg daily, day 23, 30 min after glucose): 352.0 (22.6) mg/dL
Intraperitoneal Glucose Tolerance Test Mean Blood Glucose (Std Err) ([2]; 3 mg/kg daily, day 23, 60 min after glucose): 264.6 (25.6) mg/dL
Intraperitoneal Glucose Tolerance Test Mean Blood Glucose (Std Err) ([2]; 3 mg/kg daily, day 23, 120 min after glucose): 169.6 (9.2) mg/dL
Fed Blood Glucose ([2]; 10 mg/kg daily oral, Day 0): 161.88 (6.71) mg/dL
Fed Blood Glucose ([2]; 10 mg/kg daily oral, Day 18): 154.00 (5.53) mg/dL
Plasma Insulin ([2]; 10 mg/kg daily oral): 2.14 (0.3) ng/mL
Mean Body Weight (Std Err) ([2]; 10 mg/kg daily, Day 1): 43.26 (0.40) Grams
Mean Body Weight (Std Err) ([2]; 10 mg/kg daily, Day 2): 42.39 (0.36) Grams
Mean Daily Food Intake (Std Err) ([2]; 10 mg/kg daily, Day 2): 2.24 (0.10) Grams
Mean Body Weight (Std Err) ([2]; 10 mg/kg daily, Day 3): 41.61 (0.41) Grams
Mean Daily Food Intake (Std Err) ([2]; 10 mg/kg daily, Day 3): 2.29 (0.16) Grams
Mean Body Weight (Std Err) ([2]; 10 mg/kg daily, Day 4): 40.76 (0.37) Grams
Mean Daily Food Intake (Std Err) ([2]; 10 mg/kg daily, Day 4): 1.70 (0.08) Grams
Mean Body Weight (Std Err) ([2]; 10 mg/kg daily, Day 5): 40.17 (0.39) Grams
Mean Daily Food Intake (Std Err) ([2]; 10 mg/kg daily, Day 5): 1.58 (0.11) Grams
Mean Body Weight (Std Err) ([2]; 10 mg/kg daily, Day 8): 38.16 (0.48) Grams
Mean Daily Food Intake (Std Err) ([2]; 10 mg/kg daily, Day 8): 1.80 (0.12) Grams
Mean Body Weight (Std Err) ([2]; 10 mg/kg daily, Day 10): 37.47 (0.56) Grams
Mean Daily Food Intake (Std Err) ([2]; 10 mg/kg daily, Day 10): 2.02 (0.13) Grams
Mean Body Weight (Std Err) ([2]; 10 mg/kg daily, Day 11): 36.67 (0.55) Grams
Mean Daily Food Intake (Std Err) ([2]; 10 mg/kg daily, Day 11): 1.94 (0.11) Grams
Insulin Tolerance Test, Blood Glucose AUC ([2]; 10 mg/kg daily): 14258.3 mg·min/dL
Insulin Tolerance Test Mean Blood Glucose (Std Err) ([2]; 10 mg/kg daily, day 19, 0 min after insulin): 163.5 (5.9) mg/dL
Insulin Tolerance Test Mean Blood Glucose (Std Err) ([2]; 10 mg/kg daily, day 19, 15 min after insulin): 138.4 (20.0) mg/dL
Insulin Tolerance Test Mean Blood Glucose (Std Err) ([2]; 10 mg/kg daily, day 19, 30 min after insulin): 96.2 (11.0) mg/dL
Insulin Tolerance Test Mean Blood Glucose (Std Err) ([2]; 10 mg/kg daily, day 19, 60 min after insulin): 99.7 (9.7) mg/dL
Insulin Tolerance Test Mean Blood Glucose (Std Err) ([2]; 10 mg/kg daily, day 19, 120 min after insulin): 143.5 (8.3) mg/dL
Intraperitoneal Glucose Tolerance Test Blood Glucose AUC ([2]; 10 mg/kg daily): 25680.0 mg·min/dL
Intraperitoneal Glucose Tolerance Test Mean Blood Glucose (Std Err) ([2]; 10 mg/kg daily, day 23, 0 min after glucose): 141.6 (6.5) mg/dL
Intraperitoneal Glucose Tolerance Test Mean Blood Glucose (Std Err) ([2]; 10 mg/kg daily, day 23, 30 min after glucose): 319.1 (26.9) mg/dL
Intraperitoneal Glucose Tolerance Test Mean Blood Glucose (Std Err) ([2]; 10 mg/kg daily, day 23, 60 min after glucose): 225.1 (20.3) mg/dL
Intraperitoneal Glucose Tolerance Test Mean Blood Glucose (Std Err) ([2]; 10 mg/kg daily, day 23, 120 min after glucose): 128.4 (5.7) mg/dL
